This is an account of results in ChEMBL document CHEMBL1201862, “PubChem BioAssay data set” (2004).

The structures appear in SMILES notation.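 Results reflect a 48-hour exposure of cells in 96-well plates to compound at five concentrations. Here, GI50 denotes the concentration required for 50% inhibition of growth.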 Calls of active or inactive are those of the source. Cut-off read from the data, not from the text of the source: active = GI50 up to about 1.1 µM and inactive = higher.

Test systems include CCRF-CEM; HT-29; K562; LOX IMVI; M14; MDA-MB-231; MDA-MB-435; OVCAR-3; OVCAR-4; OVCAR-8; RPMI-8226; SF-268; SK-MEL-5; SK-OV-3; SNB-19; SNB-75; SR; SW-620; TK-10; UO-31.
What all share (test): NCI anticancer screen, dose series, 48 h

Turning to `Cc1ccc(S(=O)(=O)NC(=O)Nc2nnc(S(N)(=O)=O)s2)cc1`, the GI50 in the assay on CCRF-CEM was < 0.01 µM (active); in the assay with HT-29 it was > 100 µM (inactive); in the assay with K562 it was > 100 µM (inactive); in the assay with LOX IMVI, > 100 µM (inactive); in the assay on M14 it was > 100 µM (inactive); in the assay on MDA-MB-231, > 100 µM (inactive). The GI50 with MDA-MB-435, in the assay with OVCAR-3, in the assay with OVCAR-4, with OVCAR-8, with RPMI-8226 and in the assay on SF-268 was > 100 µM (inactive) in each case. In addition, the GI50 in the assay on SK-MEL-5, in the assay on SK-OV-3, with SNB-19, with SNB-75, in the assay on SR and with SW-620 was > 100 µM (inactive) in each case. For the same compound, the GI50 with TK-10 and in the assay with UO-31 was > 100 µM (inactive) throughout.

Regarding `CCOP(=O)(OCC)c1cc2cc(O)ccc2oc1=O`, the GI50 with CCRF-CEM, in the assay on HT-29, with K562, in the assay with LOX IMVI, with M14 and in the assay with MDA-MB-231 was > 100 µM (inactive) in each case. Moreover, the GI50 with MDA-MB-435, with OVCAR-3, with OVCAR-4, in the assay with OVCAR-8, in the assay on RPMI-8226 and in the assay on SF-268 was > 100 µM (inactive) each time. Moreover, the GI50 in the assay with SK-MEL-5, in the assay with SK-OV-3, with SNB-19, with SNB-75, with SR and in the assay on SW-620 was > 100 µM (inactive) in each case. The GI50 in the assay with TK-10 is > 100 µM (inactive); in the assay with UO-31 it was 0.0112 µM (active).

On to `CSc1c(CC(=O)O)n(Cc2ccccc2)c2ccccc12`, for which the GI50 with CCRF-CEM was 84.7 µM (inactive); with HT-29, > 100 µM (inactive); in the assay with K562, 72.3 µM (inactive); in the assay with LOX IMVI, > 100 µM (inactive); with M14, > 100 µM (inactive); in the assay with MDA-MB-231 it was > 100 µM (inactive). For the same compound, the GI50 with MDA-MB-435 was > 100 µM (inactive); in the assay with OVCAR-3 it was > 100 µM (inactive); in the assay on OVCAR-4, 61.7 µM (inactive); in the assay on OVCAR-8, > 100 µM (inactive); in the assay with RPMI-8226 it was 71.1 µM (inactive); in the assay with SF-268, > 100 µM (inactive). Further, the GI50 in the assay with SK-MEL-5, with SK-OV-3, in the assay with SNB-19, with SNB-75, in the assay on SR and in the assay with SW-620 was > 100 µM (inactive) throughout. In addition, the GI50 with TK-10 and in the assay with UO-31 was > 100 µM (inactive) throughout.

In the case of `CN(CCc1ccccn1)C(=S)N/N=C/c1ccccn1`, the GI50 with CCRF-CEM was < 0.01 µM (active); with HT-29, < 0.0473 µM (active); with K562, < 0.01 µM (active); in the assay on LOX IMVI it was 0.07 µM (active); in the assay with M14 it was < 0.0226 µM (active); with MDA-MB-231, < 0.01 µM (active). The GI50 in the assay with MDA-MB-435 was 0.678 µM (active); in the assay on OVCAR-3, < 0.01 µM (active); in the assay with OVCAR-4, 0.112 µM (active); with OVCAR-8 it was 0.0308 µM (active); in the assay with RPMI-8226, < 0.01 µM (active); in the assay on SF-268, 0.248 µM (active). The GI50 is 0.11 µM (active) with SK-MEL-5; 0.376 µM (active) in the assay with SK-OV-3; 4.69 µM (inactive) in the assay on SNB-19; 7.5 µM (inactive) with SNB-75; < 0.01 µM (active) in the assay on SR; 0.0916 µM (active) in the assay on SW-620. Moreover, the GI50 is 0.043 µM (active) in the assay with TK-10 and 0.139 µM (active) with UO-31.

In the case of `O=C1/C(=C/c2ccc(O)cc2)CCC1CNc1ccccc1` (stereo not given), the GI50 in the assay with CCRF-CEM is 1.61 µM (inactive); with HT-29 it was 11.5 µM (inactive); in the assay with K562 it was 1.5 µM (inactive); with LOX IMVI, 8.38 µM (inactive); in the assay with M14, 12.2 µM (inactive); with MDA-MB-231, 14.4 µM (inactive). Also, the GI50 is 18.7 µM (inactive) with MDA-MB-435; 14.6 µM (inactive) in the assay on OVCAR-3; 19.1 µM (inactive) in the assay on OVCAR-4; 16 µM (inactive) with OVCAR-8; 1.15 µM (inactive) in the assay on RPMI-8226; 14.8 µM (inactive) in the assay on SF-268. Also, the GI50 in the assay on SK-MEL-5 is 16.8 µM (inactive); with SK-OV-3, 22.5 µM (inactive); in the assay on SNB-19, 16.3 µM (inactive); in the assay on SNB-75, 26.2 µM (inactive); with SR, 1.74 µM (inactive); in the assay with SW-620, 2.54 µM (inactive). In addition, the results for the GI50 in the assay on TK-10 and with UO-31 were 10.2 µM (inactive) and 15.6 µM (inactive), respectively.

With `COC(=O)C1=C(O)C(C(=O)OC)[C@]2(O)[C@H](C(=O)OC)[C@H]1C[C@@H](c1ccc(O)cc1)[C@H]2C(=O)OC` (stereo not given in full), the GI50 in the assay on CCRF-CEM was 54 µM (inactive); in the assay on HT-29 it was 27.5 µM (inactive); with K562, 22.8 µM (inactive); in the assay with LOX IMVI it was 29.2 µM (inactive); in the assay with M14 it was 25.4 µM (inactive); in the assay with MDA-MB-231, 23.1 µM (inactive). The GI50 is 18.7 µM (inactive) with MDA-MB-435; 11.5 µM (inactive) with OVCAR-3; 36.4 µM (inactive) in the assay with OVCAR-4; 33.4 µM (inactive) with OVCAR-8; 27.9 µM (inactive) in the assay on RPMI-8226; 30.3 µM (inactive) in the assay with SF-268. Moreover, the GI50 with SK-MEL-5 is 37.3 µM (inactive); in the assay with SK-OV-3 it was 26.5 µM (inactive); in the assay on SNB-19, 30.2 µM (inactive); in the assay on SNB-75, 20 µM (inactive); in the assay with SR, 23.2 µM (inactive); in the assay with SW-620, 50.7 µM (inactive). For the same compound, the figures for the GI50 with TK-10 and in the assay with UO-31 were 25 µM (inactive) and 45 µM (inactive), respectively.

For the compound `C/C(=N\Nc1nc2ccccc2[nH]1)c1ncccn1`, the GI50 in the assay with CCRF-CEM is 0.0303 µM (active); in the assay with HT-29, 0.0236 µM (active); with K562, 0.044 µM (active); in the assay on LOX IMVI, 0.047 µM (active); with M14, 0.0417 µM (active); with MDA-MB-231, 0.059 µM (active). For the same compound, the GI50 in the assay on MDA-MB-435 was 0.0968 µM (active); in the assay on OVCAR-3 it was 0.871 µM (active); with OVCAR-4, 0.0528 µM (active); with OVCAR-8, 0.043 µM (active); in the assay with RPMI-8226 it was 0.0585 µM (active); in the assay with SF-268, 0.0382 µM (active). The GI50 is 0.0574 µM (active) in the assay with SK-MEL-5; 0.214 µM (active) with SK-OV-3; 0.0879 µM (active) in the assay with SNB-19; 0.119 µM (active) in the assay with SNB-75; < 0.021 µM (active) in the assay on SR; 0.0344 µM (active) in the assay with SW-620. For the same compound, the results for the GI50 in the assay with TK-10 and in the assay on UO-31 were 1.31 µM (inactive) and < 0.0202 µM (active), respectively.

With `CCCCC(=O)OCC(=O)[C@]1(O)Cc2c(O)c3c(c(O)c2[C@@H](OC2CC(NC(=O)C(F)(F)F)C(O)C(C)O2)C1)C(=O)c1c(OC)cccc1C3=O` (stereo not given in full), the GI50 was 0.135 µM (active) in the assay on CCRF-CEM; 0.74 µM (active) in the assay with HT-29; 0.337 µM (active) with K562; 0.163 µM (active) in the assay with LOX IMVI; 0.832 µM (active) with M14; 3 µM (inactive) with MDA-MB-231. Also, the GI50 was 2.07 µM (inactive) in the assay on MDA-MB-435; 2.96 µM (inactive) in the assay with OVCAR-3; 2.08 µM (inactive) in the assay with OVCAR-4; 0.519 µM (active) in the assay with OVCAR-8; 0.181 µM (active) in the assay with RPMI-8226; 0.403 µM (active) in the assay with SF-268. The GI50 is 0.327 µM (active) with SK-MEL-5; 0.345 µM (active) with SK-OV-3; 0.348 µM (active) in the assay on SNB-19; 1.02 µM (active) in the assay on SNB-75; 0.0304 µM (active) with SR; 0.261 µM (active) in the assay with SW-620. Further, the GI50 with TK-10 is 2.47 µM (inactive); in the assay with UO-31 it was 1.06 µM (active).

`CC1=C(N2CC2)C(=O)c2nc3n(c2C1=O)CCC3OC(=O)CCl` (stereo not given): the GI50 in the assay on CCRF-CEM was 0.181 µM (active); in the assay with HT-29, 0.0902 µM (active); in the assay on K562 it was 0.0618 µM (active); in the assay on LOX IMVI, 0.0354 µM (active); with M14 it was 0.0361 µM (active); in the assay on MDA-MB-231, 1.91 µM (inactive). The GI50 in the assay on MDA-MB-435 is 0.0298 µM (active); in the assay with OVCAR-3 it was 0.0771 µM (active); in the assay on OVCAR-4, 0.0719 µM (active); in the assay on OVCAR-8 it was 0.0452 µM (active); in the assay with RPMI-8226, 0.0955 µM (active); in the assay on SF-268 it was 0.0498 µM (active). Moreover, the GI50 in the assay with SK-MEL-5 was 0.0428 µM (active); in the assay on SK-OV-3 it was 0.0705 µM (active); in the assay on SNB-19 it was 0.0538 µM (active); in the assay on SNB-75 it was 0.0221 µM (active); with SR, 0.225 µM (active); with SW-620 it was 0.0316 µM (active). Besides, the figures for the GI50 in the assay on TK-10 and in the assay with UO-31 were 0.13 µM (active) and 0.0483 µM (active), respectively.

With `Nc1nc(O)c(Br)c(-c2cccc([N+](=O)[O-])c2)n1`, the GI50 in the assay on CCRF-CEM was > 100 µM (inactive); with HT-29, > 100 µM (inactive); with K562, > 91.4 µM (inactive); in the assay with LOX IMVI, > 100 µM (inactive); with M14, > 38.8 µM (inactive); in the assay with MDA-MB-231, > 100 µM (inactive). The GI50 was > 100 µM (inactive) with MDA-MB-435; > 100 µM (inactive) in the assay on OVCAR-3; > 100 µM (inactive) in the assay with OVCAR-4; 73.5 µM (inactive) with OVCAR-8; 37.8 µM (inactive) in the assay on RPMI-8226; > 82.4 µM (inactive) in the assay with SF-268. In addition, the GI50 with SK-MEL-5 was > 59.6 µM (inactive); in the assay with SK-OV-3, > 61.9 µM (inactive); in the assay on SNB-19 it was 25.9 µM (inactive); in the assay with SNB-75, 55 µM (inactive); in the assay with SR, 64 µM (inactive); in the assay on SW-620, > 100 µM (inactive). For the same compound, the GI50 in the assay on TK-10 was > 100 µM (inactive); in the assay on UO-31 it was > 62.1 µM (inactive).
